Source: patent US20100056595A1, “Pyrazole Derivatives as P2X7 Modulators” (Glaxo Group Limited, priority 2007, published 2010)

These compounds were tested against T1, human P2X7 receptor (Homo sapiens, UniProt Q99572) (assay: Ethidium Accumulation Assay). Details: HEK293 cells expressing human recombinant P2X7 receptors; blocking ATP (1 mM) responses; read-out: pIC50 for human P2X7 receptor antagonist activity in the Ethidium Accumulation Assay (converted).
T1 construct: expressed in transfected cells; host or cells: HEK293
T1 sequence (Q99572 1-595): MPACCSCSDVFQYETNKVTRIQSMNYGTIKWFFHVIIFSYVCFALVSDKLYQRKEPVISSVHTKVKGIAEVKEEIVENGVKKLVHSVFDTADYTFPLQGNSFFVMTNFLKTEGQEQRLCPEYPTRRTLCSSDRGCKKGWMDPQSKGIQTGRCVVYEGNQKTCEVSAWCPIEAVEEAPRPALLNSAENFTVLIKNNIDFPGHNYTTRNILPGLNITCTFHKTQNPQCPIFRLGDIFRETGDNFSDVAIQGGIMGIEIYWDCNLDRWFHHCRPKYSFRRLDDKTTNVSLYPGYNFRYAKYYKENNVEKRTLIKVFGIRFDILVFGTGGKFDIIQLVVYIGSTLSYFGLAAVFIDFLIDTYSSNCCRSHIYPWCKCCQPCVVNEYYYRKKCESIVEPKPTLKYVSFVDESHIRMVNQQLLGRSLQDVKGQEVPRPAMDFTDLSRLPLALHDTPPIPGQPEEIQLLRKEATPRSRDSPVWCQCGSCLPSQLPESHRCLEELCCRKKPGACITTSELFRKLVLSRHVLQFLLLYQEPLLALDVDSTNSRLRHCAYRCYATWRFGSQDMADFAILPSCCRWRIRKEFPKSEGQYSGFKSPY
Type: cell-based
Description: Ethidium Accumulation Assay
Studies were performed using NaCl assay buffer of the following composition (in mM): 140 mM NaCl, HEPES 10, N-methyl-D-glucamine 5, KCl 5.6, D-glucose 10, CaCl2 0.5 (pH 7.4). HEK293 cells, expressing human recombinant P2X7 receptors, were grown in poly-L-lysine pretreated 96 well plates for 18-24 h. […] The cells were washed twice with 350 μl of assay buffer before addition of 50 μl of antagonist. The cells were then incubated at room temperature (19-21° C.) for 30 min before addition of ATP and ethidium (100 μM final assay concentration). The ATP concentration was chosen to be close to the EC80 for the receptor type and was 1 mM for studies on the human P2X7 receptor. Incubations were continued for 8 or 16 min and were terminated by addition of 25 μl of 1.3M sucrose containing 5 mM of the P2X7 receptor antagonist reactive black 5 (Aldrich). Cellular accumulation of ethidium was determined by measuring fluorescence (excitation wavelength of 530nm and emission wavelength of 620 nm) from below the plate with a Canberra Packard Fluorocount (Pangbourne, UK). Antagonist pIC50 values for blocking ATP responses were determined using iterative curve fitting techniques.

IC50, ≤ 100 nM:
Cn1ncc(Cl)c1CC(=O)NCc1cccc(C(F)(F)F)c1Cl [Example 6, 2-(4-chloro-1-methyl-1H-pyrazol-5-yl)-N-{[2-chloro-3-(trifluoromethyl)phenyl]methyl}acetamide]
Cc1cnn(C)c1CC(=O)NCc1ccc(F)c(F)c1Cl [Example 4, N-[(2-chloro-3,4-difluorophenyl)methyl]-2-(1,4-dimethyl-1H-pyrazol-5-yl)acetamide]
Cn1ncc(F)c1CC(=O)NCc1cccc(C(F)(F)F)c1Cl [Example 8, N-{[2-chloro-3-(trifluoromethyl)phenyl]methyl}-2-(4-fluoro-1-methyl-1H-pyrazol-5-yl)acetamide]
Cn1ncc(Cl)c1CC(=O)NCc1ccc(F)cc1Cl [Example 14, N-[(2-Chloro-4-fluorophenyl)methyl]-2-(4-chloro-1-methyl-1H-pyrazol-5-yl)acetamide]
Cn1ncc(Cl)c1CC(=O)NCc1ccc(Cl)cc1Cl [Example 16, 2-(4-Chloro-1-methyl-1H-pyrazol-5-yl)-N-[(2,4-dichlorophenyl)methyl]acetamide]
Cn1ncc(F)c1CC(=O)NCc1ccc(Cl)cc1Cl [Example 19, N-[(2,4-Dichlorophenyl)methyl]-2-(4-fluoro-1-methyl-1H-pyrazol-5-yl)acetamide]
Cn1ncc(F)c1CC(=O)NCc1ccc(F)c(F)c1Cl [Example 18, N-[(2-Chloro-3,4-difluorophenyl)methyl]-2-(4-fluoro-1-methyl-1H-pyrazol-5-yl)acetamide]
Cc1cnn(CC(F)(F)F)c1CC(=O)NCc1ccc(F)c(F)c1Cl [Example 3, N-[(2-chloro-3,4-difluorophenyl)methyl]-2-[4-methyl-1-(2,2,2-trifluoroethyl)-1H-pyrazol-5-yl]acetamide]
Cn1ncc(I)c1CC(=O)NCc1ccc(Cl)cc1Cl [Example 20, N-[(2,4-Dichlorophenyl)methyl]-2-(4-iodo-1-methyl-1H-pyrazol-5-yl)acetamide]
Cn1nccc1CC(=O)NCc1cccc(C(F)(F)F)c1Cl [Example 5, N-{[2-chloro-3-(trifluoromethyl)phenyl]methyl}-2-(1-methyl-1H-pyrazol-5-yl)acetamide]
Cn1ncc(Br)c1CC(=O)NCc1cccc(C(F)(F)F)c1Cl [Example 7, 2-(4-Bromo-1-methyl-1H-pyrazol-5-yl)-N-{[2-chloro-3-(trifluoromethyl)phenyl]methyl}acetamide]
Cc1cnn(C)c1CC(=O)NCc1ccc(Cl)cc1Cl [Example 10]
Cn1ncc(Cl)c1CC(=O)NCc1ccc(F)c(F)c1Cl [Example 15, N-[(2-Chloro-3,4-difluorophenyl)methyl]-2-(4-chloro-1-methyl-1H-pyrazol-5-yl)acetamide]
Cc1cnn(C)c1CC(=O)NCc1cccc(C(F)(F)F)c1Cl [Example 2, N-{[2-chloro-3-(trifluoromethyl)phenyl]methyl}-2-(1,4-dimethyl-1H-pyrazol-5-yl)acetamide]
